From US10301323B2, “Histone deacetylase inhibitors” (BIOMARIN PHARMACEUTICAL INC., priority 2011, dated 2019)
pIC50: −log10 of the molar value. Like-named read-outs stand apart in the source and are kept apart here.

Experiments:
HCT116 cells = assay: Cell proliferation assay; assay type: cell-based; settings: Homo sapiens, HCT-116, 72 h, read-out: Hct-116 (anti-proliferation IC50)
Method: HCT116 cells (5000 cells/well) in 80 μL McCoy's 5 A medium containing 10% v/v FBS, 1% v/v penicillin/streptomycin and 1% v/v L-glutamine were incubated in 96-well plates with compounds at various concentrations for 72 h at 37° C. in a 5% CO2 atmosphere. The compound dilutions were made in 100% DMSO followed by parallel dilutions in media. The final concentration of DMSO in each well was 0.05%. After 72 h, 20 μL of Cell titer 96 aqueous one solution (Promega Corporation, Madison, Wis.) were added to the cells and the plate was incubated at 37° C. for another 4 h. The absorbance at 490 nm was then recorded on a 96-well plate reader (Spectramax M2, Molecular Devices, Sunnyvale, Calif.). Data analysis was performed in Microsoft Excel (Microsoft Corp, Redmond, Wash.).

C57BL/6J male mice = assay: Long term memory for object recognition; assay type: in vivo; settings: 3, 10, 30 mg/kg subcutaneous; object recognition memory task
Method: C57BL/6J male mice were handled 1-2 min for 5 days and were habituated to the experimental apparatus 5 min a day for 4 consecutive days in the absence of objects. […] 24-h later mice were tested for memory retention (5 min) using the object recognition memory task (ORM), in which a familiar object was replaced with a novel one. All training and testing trials were videotaped and analyzed by individuals blind to the treatment condition and the genotype of subjects. A mouse was scored as exploring an object when its head was oriented toward the object within a distance of 1 cm or when the nose was touching the object. The relative exploration time was recorded and expressed by a discrimination index [DI=(tnovel−tfamiliar)/(tnovel+tfamiliar)×100].

[1] = system: GM 15850 (lymphoblastoid cells line) cells; assay: In-cell deacetylase inhibition assay (DAC assay); assay type: cell-based; settings: Homo sapiens, GM15850, GM 15850 cells, 4 h incubation
Method: Compound dilutions were made in 100% DMSO followed by parallel dilution in media with 2% DMSO. 10 μl of the compound dilutions were added to the cells to achieve the desired concentrations. The final concentration of DMSO in each well was 0.2%. The cells were incubated for 4 h at 37° C. with 5% CO2. After incubation, the cells were centrifuged down and the supernatant was removed. […] The reaction was stopped after 30 min incubation by addition of 50 μL developer (6 mg/mL trypsin in HDAC assay buffer). The reaction was allowed to develop for 30 min at room temperature and the fluorescence signal was detected using a fluorometer (Spectramax M2, Molecular Devices, Sunnyvale, Calif.) with excitation and emission wavelengths of 360 nm and 470 nm respectively. The data was fitted to a sigmoidal dose response equation with variable slope in GraphPad Prism 5.0 (GraphPad Software, La Jolla, Calif.) to determine IC50. Bottom and top of the curve were fixed to the average fluorescence response of control wells with no cells and cells but no compound respectively.

[2] = Compound stability in hepatocytes; settings: human hepatocytes, 5 μM compound
Method: To assess the stability and metabolism of RGFP compounds in hepatocytes. This assay was designed to evaluate the metabolism of RGFP compounds, following their incubation with human, monkey, dog and rat hepatocytes by monitoring either parent drug disappearance or metabolite appearance using HPLC.
Procedure: • Turn on the water-bath heater to 37° C. • Take out the KHB buffer and make sure it is at room temp before use • Prepare 2.5 mM concentration of RGFP compound in DMSO stock • Add 10 μL of above DMSO stock to 2490 μL KHB buffer; final concentration of RGFP compound will be 10 μM • Pre-warm 45 ml InVitro HT Medium to 37° C. in a sterile 50 ml conical tube • Add 1.0 mL Torpedo Antibiotic Mix per 45 mL InVitro HT medium • Transfer 13 mL of warm HT medium with Antibiotic Mix into a 15 mL conical tube. • Carefully remove the hepatocyte vials from liquid nitrogen (liquid phase). • Immediately immerse the vial into a 37° C. water bath. Shake gently until the ice melts entirely. […] Loosen the cell pellet by gently swirling the centrifuge tube • Transfer 100 μL of above solution to a different tube and add 900 μL of KHB buffer to count the cells • Determine the total cell count and the number of viable cells using the Trypan Blue exclusion method • Once you obtain the cell count, multiply the number by 10 (attributing to the dilution factor) • Now add required volume of KHB buffer to the tube containing hepatocytes such that the final count will be 2 million cells/mL • Dispense 50 μL of 2 million cells/ml to a 96 well plate and then add 50 μl of DMSO stock to respective wells (such that, the concentration of RGFP compounds is 5 μM and number of cells are 100000 in each well) • Place the plates on a shaker in a 37° C. incubator with 5% CO2 • Separate plates for each time point are advisable (Time points: 0 h, 1 h, 2 h, and 6 h) • After each time point, add 100 μL of quenching solution. • Quenching solution is an acetonitrile solution containing RGFP531 (10 μM) internal standard, 0.1% formic acid and phenylglyoxol (400 μM). The formic acid and phenylglyoxal is used for the identification and quantification of OPD as mentioned above. • Pipette up and down a few times to ensure a complete stop of reaction • Transfer all the solution into a 1.5 ml tube, vortex thoroughly, and centrifuge at 14000 RPM at 4° C. for 5 minutes to precipitate cell debris
Transfer the 150 μL of supernatant to vials for analysis using HPLC

[3] = Brain penetration studies; settings: Table 4; mice dosed s.c. at 5 mg/kg or 50 mg/kg, or i.v. at 5 mg/kg; Cmax(brain)/Cmax(plasma)
Method: Test compounds were prepared at either 0.5 mg/ml or 5 mg/ml in 30% hydroxypropyl-β-cyclodextrin, 100 mM sodium acetate pH 5.5, 5% DMSO. C57/BL6/J mice were dosed s.c. at 5 mg/kg or 50 mg/kg, or i.v. at 5 mg/kg. Animals were euthanized at pre-dose, 5, 15, 30 min, 1, 2 and 4 hours post-dose and plasma and brain obtained. Three animals per dose per time points were used. The levels of compound in the plasma and brain were determined by standard LC/MS/MS methods. Brain/plasma ratio (BPR) was calculated as the ratio of the Cmax(brain)/Cmax(plasma).

[4] = system: frataxin (FXN) mRNA in primary lymphocytes from Friedreich's ataxia patient donors; assay: Effect of HDAC inhibitors on frataxin (FXN) mRNA expression; assay type: cell-based, human; settings: Table 4, concentration required for a 2-fold increase in FXN mRNA, 48 hours
Method: Blood is collected from Friedreich's ataxia patient donors into tubes containing the anti-coagulant EDTA. Primary lymphocytes are isolated using Lymphocyte Separation Medium (MP Biomedicals, Solon, Ohio) following the manufacturer's instructions and including a few modifications made by Repligen. After a final wash in Phosphate Buffered Saline (PBS), the cells are distributed into a 6-well cell culture plate in cell growth medium. The test HDAC inhibitor compound is added to cells in a dose escalating manner (usually concentrations range from 1 to 10 μM) and 0.1% DMSO is added to one well of cells as a no treatment control. Cells are incubated for 48 hours at 37° C. in a CO2 incubator; cell counts are taken using a Countess automated cell counter (Invitrogen, Carlsbad, Calif.). Equivalent numbers of cells for all treatment conditions are pelleted by centrifugation and resuspended in cell lysis buffer. Total RNA is isolated from approximately 1×10^6 primary lymphocytes using a RNeasy Mini Kit (Qiagen, Valencia, Calif.), following the manufacturer's instructions and including an optional on-column DNAse digestion step. […] The RNA yield and concentration is determined using a Nanodrop spectrophotometer (Thermo Fisher Scientific, Waltham, Mass.) and depending on the RNA concentration, one of two protocols is used to measure frataxin (FXN) transcript levels. […] In both methods each RNA sample is analyzed in triplicate (preferably) or duplicate (minimally) using a one-step qRT-PCR master mix that contains all the components necessary for cDNA synthesis and PCR amplification in a single, continuous reaction. […] The amount of FXN (or GAPDH) in the sample is determined as the relative quantity to the calibrator where the calibrator sample is assigned an arbitrary quantity of 1. The following equation is used: Relative quantity to the calibrator=2^−ΔCt where ΔCt=(Ct_gene)unknown−(Ct_gene)calibrator, gene is either FXN or GAPDH, calibrator is a DMSO control sample, and unknown is a HDACi treated sample. The relative quantity of FXN is normalized to cell number and RNA input. […]

Structure (SMILES) | pIC50 ([1]; Table 4, read-out: DAC IC50) | % left 6h Hum [2] | BPR [3] | further results
Cn1cnc(/C=C/C(=O)Nc2ccccc2N)c1 [A12] | – | – | – | pIC50 (HCT116 cells): < 4.70
Nc1ccccc1NC(=O)/C=C/c1cnn(CCOc2cc(F)cc(Cl)c2)c1 [B5, (E)-N-(2-aminophenyl)-3-(1-(2-(3-chloro-5-fluorophenoxy)ethyl)-1H-pyrazol-4-yl)acrylamide] | – | – | – | pIC50 (HCT116 cells): 4.70 to 5.00
Nc1cc(F)ccc1NC(=O)/C=C/c1cnn(C/C=C/c2ccccc2)c1 [D2, (E)-N-(2-amino-4-fluorophenyl)-3-(1-cinnamyl-1H-pyrazol-4-yl)acrylamide] | – | – | – | dose dependence of the effect on long-term memory (C57BL/6J male mice): no effect of dose
Nc1ccccc1NC(=O)/C=C/c1csc(C/C=C/c2ccccc2)n1 [E2, (E)-N-(2-aminophenyl)-3-(2-cinnamylthiazol-4-yl)acrylamide] | – | – | – | pIC50 (HCT116 cells): < 4.70; pIC50 ([1]; read-out: 850 DAC (in-cell deacetylase inhibition IC50)): 4.70 to 5.00
CN1C2CCC1CC(=Cc1ccc(C(=O)Nc3ccccc3N)cc1Cl)C2 [F8] | > 6.00 | – | – | –
Nc1ccccc1NC(=O)c1ccc(C=C2CN(CC3CC3)C2)c(Cl)c1 [F10] | 5.00 to 5.30 | – | A (A is greater than 1) | –
Nc1ccccc1NC(=O)c1ccc(C=C2COC2)c(Cl)c1 [F11] | > 6.00 | – | A (A is greater than 1) | –
Cc1ccc(C(=O)NCCCCCC(=O)Nc2ccc(F)cc2N)cc1 [RGFP 136, reference compound] | – | – | – | dose dependence of the effect on long-term memory (C57BL/6J male mice): Dose dependent effects

Second part, led by results:

pIC50 ([1]; Table 4, read-out: DAC IC50) | % left 6h Hum [2] | BPR [3] | Structure (SMILES) | further results
5.00 to 5.30 | – | – | Nc1ccccc1NC(=O)c1ccc(C=C2CCN(Cc3cccnc3)CC2)c(Cl)c1 [F7] | –
> 6.00 | IA (IA<10%) | – | Nc1ccccc1NC(=O)c1ccc(C=C2COC2)cc1F [F9] | –
> 6.00 | A (50%<A) | A (A is greater than 1) | Nc1ccccc1NC(=O)c1ccc(C=C2CN(CC3CC3)C2)cc1 [F12] | Fxn >2X (uM) [4]: A (A if less than 5 μM)
– | – | A (A is greater than 1) | Nc1ccccc1NC(=O)c1ccc(C=C2CCN(CC3CC3)CC2)cc1 [F13] | –
5.30 to 6.00 | – | A (A is greater than 1) | CC(C)(C)CN1CCC(=Cc2ccc(C(=O)Nc3ccccc3N)cc2)CC1 [F14] | Fxn >2X (uM) [4]: A (A if less than 5 μM)
5.30 to 6.00 | A (50%<A) | A (A is greater than 1) | CC(C)(O)CN1CCC(=Cc2ccc(C(=O)Nc3ccccc3N)cc2)CC1 [F15] | Fxn >2X (uM) [4]: A (A if less than 5 μM)
– | A (50%<A) | – | CC(C)(O)CN1CC(=Cc2ccc(C(=O)Nc3ccccc3N)cc2)C1 [F19] | –
– | A (50%<A) | – | Nc1cc(F)ccc1NC(=O)c1ccc(C=C2CN(CC3CC3)C2)cc1 [F20] | –
